# Assay results as given in patent US7566683B2, “Ethylene derivatives and pesticides containing said derivatives” (priority 1996, dated 2009).
# Columns and labels:
# [1] = tested on: Two-Spotted Spider Mites (Tetranychus urticae Koch); assay: whole plant or invertebrate; assay type: in vivo; conditions: foliar, 500 ppm solution sprayed 2 ml/cup on kidney bean leaf discs, larvae, 25° C., after 96 hours
# Experimental: The leaves of kidney bean plants were punched into 3 cm-diameter discs, using a leaf punch, and put onto moistured filter paper in a 7 cm-diameter styrol cup. Ten (10) larvae of two-spotted spider mites (Tetranychus urticae) were put to each leaf. […] The solution was sprayed over each cup in an amount of 2 ml/cup, using a rotary sprinkler, and the cups were stored in a thermostatic chamber at 25° C. […] Each compound was tested in that manner for two groups of cups.
# [2] = tested on: Cucurbit Leaf Beetles (Aulacophora femoralis Motschulsky); assay: Insecticidal test for cucurbit leaf beetles; assay type: in vivo; conditions: 144 h, cucumber leaves dipped in 500 ppm solution, second instar nymphae, 25° C., after 6 days
# Experimental: The leaves of cucumbers were dipped in this chemical solution for about 10 seconds, dried in air, and put into a laboratory dish. Ten (10) second instar nymphae of cucurbit leaf beetles (Aulacophora femoralis) were released in each dish. Each dish was covered with a cover, and stored in a thermostatic chamber at 25° C. […] Each compound was tested in that manner for two groups of dishes.
# [3] = tested on: Diamond Back Moth (Plutella xylostella Linné); assay: Insecticidal test for diamond back moth; assay type: in vivo; conditions: 144 h, cabbage leaves dipped in 500 ppm aqueous emulsion, second larvae, 25° C., after 6 days
# Experimental: The leaves of cabbage were dipped in a 500 ppm aqueous emulsion of a compound of the invention for about 10 seconds. After having been dried in air, the thus-treated leaves were put into laboratory dishes. Ten (10) second larvae of diamond back moth (Plutella xylostella) were released in each dish. Each dish was covered with a perforated cover, and stored in a thermostatic chamber at 25° C. […] Each compound was tested in that manner for two groups of dishes.
# [4] = tested on: Green Peach Aphids (Myzus persicae Sulzer); assay: Insecticidal test for green peach aphids; assay type: in vivo; conditions: 144 h, 500 ppm spray (2.5 mg/cm^2) on cabbage leaf, apterous adults, larvae and adults counted after 6 days
# Experimental: Moistured filter paper was placed in each laboratory glass dish having an inner diameter of 3 cm, and a leaf cabbage having the same diameter as that of the dish was put on the filter paper. Four female, apterous adults of green peach aphids (Myzus persicae) were put on the cabbage leaf. Fllowing day, a chemical sample (2.5 mg/cm^2) was sprayed over the dishes, using a rotary sprinkler. […] After 6 days passed, the insects in each cylinder were observed, and mortality of the insects (larvae and adults) was determined according to the following equation. Each compound was tested in that manner for two groups of dishes. Mortality (%)=[number of insect killed/(number of insect killed+number of living insect)]×100
# [5] = tested on: Brown Rice Planthopper (Nilaparvata lugens Stal); assay: Insecticidal test for brown rice planthopper; assay type: in vivo; conditions: 144 h, 500 ppm solution applied to rice stems and leaves, second instar nymphae, after 6 days
# Text: The stems and leaves of rice-plants in 1/20,000 are pot were sufficiently applied with the resulting solution. After the thus-applied chemical solution was dried in air, each pot was covered with a cylindrical cover. Ten (10) second instar nymphae of brown rice planthoppers (Nilaparvata lugens) were released in each pot. After having been thus covered, the pots were stored in a thermostatic chamber. After 6 days passed, the insects in each pot were observed, and the mortality thereof was determined according to the following equation. Each compound was tested in that manner for two groups of pots. Mortality (%)=([number of insect killed/(number of insect killed+number of living insect)]×100
SMILES,mortality at 500 ppm [1] [%],mortality at 500 ppm [2] [%],mortality at 500 ppm [3] [%],also measured
Cn1nc(Cl)c(C(=O)C(Br)c2ccccc2)c1Cl (stereo not shown),,,,melting point: 74.5 to 75.5 °C
"Cn1nc(Cl)c(C(=O)OC(=C(C#N)c2ccc(C(F)(F)F)cc2)c2c(Cl)nn(C)c2Cl)c1Cl [IV-5, 2-(4-trifluoromethylphenyl)-3-(1-methyl-3,5-dichloropyrazol-4-yl)-3-(1-methyl-3,5-dichloropyrazole-4-carbonyloxy)acrylonitrile]",≥ 80,,,
"Cn1nc(Cl)c(C(O)=C(C#N)n2ccc(-c3c(F)cccc3F)n2)c1Cl [I-40, 2-{3-(2,6-difluorophenyl)pyrazol-1-yl}-3-(1-methyl-3,5-dichloropyrazol-4-yl)-3-hydroxyacrylonitrile]",≥ 80,100,≥ 80,mortality at 500 ppm [4]: ≥ 80%
"Cn1nc(C(F)(F)F)c(C(OC(=O)C(C)(C)C)=C(C#N)c2ccc(C(C)(C)C)cc2)c1Cl [IV-24, 2-(4-tert-butylphenyl)-3-(1-methyl-3-trifluoromethyl-5-chloropyrazol-4-yl)-3-pivaloyloxyacrylonitrile]",≥ 80,,,
"Cn1nc(Cl)c(C(O)=C(C#N)c2coc(C(C)(C)C)n2)c1Cl [V-40, 2-{2-tert-butyloxazol-4-yl}-3-(3,5-dichloro-1-methyl-pyrazol-4-yl)-3-hydroxyacrylonitrile]",≥ 80,100,,
"Cn1nc(Cl)c(C(O)=C(C#N)c2csc(-c3ccccc3)n2)c1Cl [II-1, 3-(1-methyl-3,5-dichloropyrazol-4-yl)-2-(2-phenylthiazol-4-yl)-3-hydroxyacrylonitrile]",,100,≥ 80,mortality at 500 ppm [5]: ≥ 80%
"Cc1nc(C(F)(F)F)c(C(OC(=O)c2ccccc2)=C(C#N)c2csc(C(C)(C)C)n2)s1 [II-75, 2-(2-tert-butylthiazol-4-yl)-3-(2-methyl-4-trifluoromethylthiazol-5-yl)-3-benzoyloxyacrylonitrile]",≥ 80,,≥ 80,mortality at 500 ppm [4]: ≥ 80%; mortality at 500 ppm [5]: ≥ 80%
"Cn1nc(Cl)c(C(O)=C(C#N)c2ccc(C(C)(C)C)cc2)c1Cl [IV-18, 2-(4-tert-butylphenyl)-3-(1-methyl-3,5-dichloropyrazol-4-yl)-3-hydroxyacrylonitrile]",≥ 80,,,
Cn1nc(C(F)(F)F)c(C(O)=C(Br)n2ccc(-c3c(F)cccc3F)n2)c1Cl,,,,melting point: 123 to 125 °C
"Cn1nc(C(F)(F)F)c(C(OC(=O)C(C)(C)C)=C(C#N)c2nc(C(C)(C)C)cs2)c1Cl [III-6, 3-(1-methyl-3-trifluoromethyl-5-chloropyrazol-4-yl)-2-(4-tert-butylthiazol-2-yl)-3-pivaloyloxyacrylonitrile]",≥ 80,100,≥ 80,mortality at 500 ppm [4]: ≥ 80%; mortality at 500 ppm [5]: ≥ 80%
"COC(=O)OC(=C(C#N)c1ccc(C(C)(C)C)cc1)c1c(Cl)nn(C)c1Cl [IV-36, 2-(4-tert-butylphenyl)-3-(3,5-dichloro-1-methylpyrazol-4-yl)-3-methoxycarbonyloxyacrylonitrile]",≥ 80,,,
"CCOCOC(=C(C#N)c1coc(C(C)(C)C)n1)c1c(C(F)(F)F)nn(C)c1Cl [V-44, 2-(2-tert-butyloxazol-4-yl)-3-(5-chloro-1-methyl-3-trifluoromethylpyrazol-4-yl)-3-ethoxymethoxyacrylonitrile]",≥ 80,,,
